According to ChEMBL document CHEMBL4346695, “Thiophenol-formaldehyde triazole causes apoptosis induction in ovary cancer cells and prevents tumor growth formation in mice model” (2019):
The source made the active and inactive calls. The calls are words filed in the database; no cut-off is given here.

Key:
Caov-3 cell line [1] = test: Antiinvasive activity in human Caov3 cells at 1.5 uM incubated for 48 hrs using hematoxylin by microscopy-based transwell assay relative to control; type: functional
Caov-3 cell line [2] = test: Antiinvasive activity in human Caov3 cells at 2.0 uM incubated for 48 hrs using hematoxylin by microscopy-based transwell assay relative to control; type: functional
Caov-3 cell line [3] = test: Inhibition of cell migration in human Caov3 cells assessed as decrease in migration potential at 0.5 to 2.0 uM incubated for 48 hrs by wound healing assay (reference value: 89.65%); type: functional
Caov-3 cell line [4] = test: Inhibition of metastasis in human Caov3 cells assessed as decrease in MMP2 expression level at 0.5 uM incubated for 48 hrs by Western blot analysis; type: functional, cell-based
Caov-3 cell line [5] = test: Inhibition of metastasis in human Caov3 cells assessed as decrease in MMP9 expression level at 0.5 uM incubated for 48 hrs by Western blot analysis; type: functional, cell-based
Caov-3 cell line [6] = test: Inhibition of metastasis in human Caov3 cells assessed as decrease in MMP2 expression level at 0.25 uM incubated for 48 hrs by Western blot analysis; type: functional, cell-based
Caov-3 cell line [7] = test: Inhibition of metastasis in human Caov3 cells assessed as decrease in MMP9 expression level at 0.25 uM incubated for 48 hrs by Western blot analysis; type: functional, cell-based
Caov-3 cell line [8] = test: Inhibition of metastasis in human Caov3 cells assessed as decrease in FAK activation level at 0.5 uM incubated for 48 hrs by Western blot analysis; type: functional, cell-based
Caov-3 cell line [9] = test: Inhibition of metastasis in human Caov3 cells assessed as decrease in FAK phosphorylation level at 0.5 to 5.0 uM incubated for 48 hrs by Western blot analysis; type: functional, cell-based
Caov-3 cell line [10] = test: Antitumor activity against human Caov3 cells xenografted in BALB/c nude mouse assessed as tumor size at 5 mg/kg, ip incubated for 1 hr post tumor implantation and measured after 20 days (reference value: 1956 +/- 367 mm3); type: functional
Caov-3 cell line [11] = test: Antitumor activity against human Caov3 cells xenografted in BALB/c nude mouse assessed as tumor size at 10 mg/kg, ip incubated for 1 hr post tumor implantation and measured after 20 days (reference value: 1956 +/- 367 mm3); type: functional
Caov-3 cell line [12] = test: Antimetastasis activity against human Caov3 cells xenografted in BALB/c nude mouse assessed as reduction of metastasis in liver at 10 mg/kg, ip incubated for 1 hr post tumor implantation and measured after 20 days by H and E staining-based assay; type: functional, organism-based
Caov-3 cell line [13] = test: Antimetastasis activity against human Caov3 cells xenografted in BALB/c nude mouse assessed as reduction of metastasis in intestine at 10 mg/kg, ip incubated for 1 hr post tumor implantation and measured after 20 days by H and E staining-based assay; type: functional, organism-based
Caov-3 cell line [14] = test: Antimetastasis activity against human Caov3 cells xenografted in BALB/c nude mouse assessed as reduction of metastasis in spleen at 10 mg/kg, ip incubated for 1 hr post tumor implantation and measured after 20 days by H and E staining-based assay; type: functional, organism-based
Caov-3 cell line [15] = test: Antimetastasis activity against human Caov3 cells xenografted in BALB/c nude mouse assessed as reduction of metastasis in peritoneal cavity at 10 mg/kg, ip incubated for 1 hr post tumor implantation and measured after 20 days by H and E staining-based assay; type: functional, organism-based
Caov-3 cell line [16] = test: (§1) Antimetastasis activity against human Caov3 cells xenografted in BALB/c nude mouse assessed as reduction in vWF expression in liver lesions at 10 mg/kg, ip incubated for 1 hr post tumor implantation and measured after 20 days by DAB and hematoxylin staining based immunohistochemical analysis relative to control; type: functional; set-up: scale not given: the % may be the effect or the level left
Caov-3 cell line [17] = test: as §1, with “lungs” for “liver”; type: functional; set-up: scale not given: the % may be the effect or the level left
Caov-3 cell line [18] = test: as §1, with “intestinal” for “liver”; type: functional; set-up: scale not given: the % may be the effect or the level left
Caov-3 cell line [19] = test: as §1, with “peritoneal” for “liver”; type: functional; set-up: scale not given: the % may be the effect or the level left
Caov-3 cell line [20] = test: (§2) Antimetastasis activity against human Caov3 cells xenografted in BALB/c nude mouse assessed as reduction in vWF expression in liver lesions at 5 mg/kg, ip incubated for 1 hr post tumor implantation and measured after 20 days by DAB and hematoxylin staining based immunohistochemical analysis; type: functional, organism-based
Caov-3 cell line [21] = test: (§3) Antimetastasis activity against human Caov3 cells xenografted in BALB/c nude mouse assessed as reduction in vWF expression in lungs lesions at 5 mg/kg, ip incubated for 1 hr post tumor implantation and measured after 20 days by DAB and hematoxylin staining based immunohistochemical analysis; type: functional, organism-based
Caov-3 cell line [22] = test: (§4) Antimetastasis activity against human Caov3 cells xenografted in BALB/c nude mouse assessed as reduction in vWF expression in intestinal lesions at 5 mg/kg, ip incubated for 1 hr post tumor implantation and measured after 20 days by DAB and hematoxylin staining based immunohistochemical analysis; type: functional, organism-based
Caov-3 cell line [23] = test: (§5) Antimetastasis activity against human Caov3 cells xenografted in BALB/c nude mouse assessed as reduction in vWF expression in peritoneal lesions at 5 mg/kg, ip incubated for 1 hr post tumor implantation and measured after 20 days by DAB and hematoxylin staining based immunohistochemical analysis; type: functional, organism-based
Caov-3 cell line [24] = test: as §1, with “infiltration of macrophages” for “vWF expression”; type: functional; set-up: scale not given: the % may be the effect or the level left
Caov-3 cell line [25] = test: as §1, with “infiltration of macrophages” for “vWF expression”, “lungs” for “liver”; type: functional; set-up: scale not given: the % may be the effect or the level left
Caov-3 cell line [26] = test: as §1, with “infiltration of macrophages” for “vWF expression”, “intestinal” for “liver”; type: functional; set-up: scale not given: the % may be the effect or the level left
Caov-3 cell line [27] = test: as §1, with “infiltration of macrophages” for “vWF expression”, “peritoneal” for “liver”; type: functional; set-up: scale not given: the % may be the effect or the level left
Caov-3 cell line [28] = test: as §2, with “infiltration of macrophages” for “vWF expression”; type: functional, organism-based
Caov-3 cell line [29] = test: as §3, with “infiltration of macrophages” for “vWF expression”; type: functional, organism-based
Caov-3 cell line [30] = test: as §4, with “infiltration of macrophages” for “vWF expression”; type: functional, organism-based
Caov-3 cell line [31] = test: as §5, with “infiltration of macrophages” for “vWF expression”; type: functional, organism-based

## Fc1ccccc1-n1cc(COCc2ccccc2S)nn1
Caov-3 cell line [1]
  Activity: 39.14%
Caov-3 cell line [2]
  Activity: 8.62%
Caov-3 cell line [3]
  inhibition (INH): 6.43%
Caov-3 cell line [4]
  inhibition: Active
Caov-3 cell line [5]
  inhibition: Active
Caov-3 cell line [6]
  inhibition: inactive
Caov-3 cell line [7]
  inhibition: inactive
Caov-3 cell line [8]
  inhibition: Active
Caov-3 cell line [9]
  inhibition: Active
Caov-3 cell line [10]
  Activity: 1258 mm3
Caov-3 cell line [11]
  Activity: 213.34 mm3
Caov-3 cell line [12]
  Activity: Active
Caov-3 cell line [13]
  Activity: Active
Caov-3 cell line [14]
  Activity: Active
Caov-3 cell line [15]
  Activity: Active
Caov-3 cell line [16]
  Activity: 7%
Caov-3 cell line [17]
  Activity: 8%
Caov-3 cell line [18]
  Activity: 6%
Caov-3 cell line [19]
  Activity: 5%
Caov-3 cell line [20]
  Activity: inactive
Caov-3 cell line [21]
  Activity: inactive
Caov-3 cell line [22]
  Activity: inactive
Caov-3 cell line [23]
  Activity: inactive
Caov-3 cell line [24]
  Activity: 8%
Caov-3 cell line [25]
  Activity: 9%
Caov-3 cell line [26]
  Activity: 7%
Caov-3 cell line [27]
  Activity: 5%
Caov-3 cell line [28]
  Activity: inactive
Caov-3 cell line [29]
  Activity: inactive
Caov-3 cell line [30]
  Activity: inactive
Caov-3 cell line [31]
  Activity: inactive
